Laboratory results: the NIST ThermoML archive (doi:10.1021/je700492k)
Numbers after ± are expanded uncertainties.

Test: excess molar enthalpy (molar enthalpy of mixing); xn = mol fraction of the nth substance listed
Conditions: Liquid, Flow calorimetry

CC(=O)CC(C)=O [2,4-pentanedione] + CC(C)O
excess molar enthalpy [kcal/mol]
Conditions	298.15 K	313.15 K	328.15 K
100 kPa, x1 = 0.0503	0.0985 ± 0.00263	0.101 ± 0.00263	0.103 ± 0.00263
100 kPa, x1 = 0.1501	0.235 ± 0.00526	0.247 ± 0.0055	0.262 ± 0.00574
100 kPa, x1 = 0.2502	0.321 ± 0.00693	0.344 ± 0.00741	0.365 ± 0.00789
100 kPa, x1 = 0.3499	0.374 ± 0.00813	0.403 ± 0.0086	0.43 ± 0.00908
100 kPa, x1 = 0.3997	0.39 ± 0.00837	0.421 ± 0.00908	0.448 ± 0.00956
100 kPa, x1 = 0.4498	0.401 ± 0.0086	0.432 ± 0.00932	0.459 ± 0.0098
100 kPa, x1 = 0.5001	0.405 ± 0.0086	0.436 ± 0.00932	0.462 ± 0.0098
100 kPa, x1 = 0.5507	0.403 ± 0.0086	0.432 ± 0.00932	0.457 ± 0.0098
100 kPa, x1 = 0.6	0.395 ± 0.00837	0.42 ± 0.00908	0.444 ± 0.00956
100 kPa, x1 = 0.6493	0.38 ± 0.00813	0.402 ± 0.0086	0.422 ± 0.00908
100 kPa, x1 = 0.7	0.356 ± 0.00765	0.376 ± 0.00813	0.393 ± 0.00837
100 kPa, x1 = 0.7999	0.285 ± 0.00621	0.296 ± 0.00645	0.305 ± 0.00669
100 kPa, x1 = 0.8503	0.234 ± 0.00526	0.238 ± 0.00526	0.246 ± 0.0055
100 kPa, x1 = 0.9504	0.0914 ± 0.00239	0.0934 ± 0.00263	0.0939 ± 0.00263
10000 kPa, x1 = 0.0502	0.0928 ± 0.00239	0.0986 ± 0.00263	0.103 ± 0.00263
10000 kPa, x1 = 0.1497	0.224 ± 0.00502	0.245 ± 0.0055	0.258 ± 0.00574
10000 kPa, x1 = 0.2496	0.312 ± 0.00669	0.341 ± 0.00741	0.362 ± 0.00789
10000 kPa, x1 = 0.3492	0.367 ± 0.00789	0.402 ± 0.0086	0.426 ± 0.00908
10000 kPa, x1 = 0.3989	0.384 ± 0.00813	0.42 ± 0.00908	0.445 ± 0.00956
10000 kPa, x1 = 0.449	0.395 ± 0.00837	0.431 ± 0.00908	0.456 ± 0.0098
10000 kPa, x1 = 0.4993	0.4 ± 0.0086	0.435 ± 0.00932	0.46 ± 0.0098
10000 kPa, x1 = 0.5498	0.399 ± 0.0086	0.431 ± 0.00932	0.455 ± 0.0098
10000 kPa, x1 = 0.5992	0.391 ± 0.00837	0.42 ± 0.00908	0.443 ± 0.00956
10000 kPa, x1 = 0.6486	0.376 ± 0.00813	0.401 ± 0.0086	0.422 ± 0.00908
10000 kPa, x1 = 0.6994	0.354 ± 0.00765	0.374 ± 0.00813	0.392 ± 0.00837
10000 kPa, x1 = 0.7993	0.284 ± 0.00621	0.294 ± 0.00645	0.304 ± 0.00669
10000 kPa, x1 = 0.8499	0.234 ± 0.00526	0.238 ± 0.00526	0.244 ± 0.0055
10000 kPa, x1 = 0.9503	0.0908 ± 0.00239	0.0922 ± 0.00239	0.0924 ± 0.00263
